Here are results for one substance from article doi:10.1101/2025.02.26.640323, “Aggregation-Dependent Epitope Sequence and Modification Fingerprints of Anti-Aβ Antibodies” (bioRxiv, 2025).

Entries after “also recorded” stand apart in the source; their conditions may differ.

The test system of assay [1] is amyloid precursor protein (APP770) residues 649–722. Briefly: Peptide microarray epitope pre-screening (overlapping 15-mers). It is filed as binding, human. To be noted: 0.5–1 μg/mL antibody. Here is the method: Information regarding binding epitopes and /or immunogens for most of the tested Aβ-Abs has been published and is summarized in Table 1. However, the binding epitope information was derived from varying methodologies. To provide an initial side-by-side comparison we pre-screened all of the listed Aβ-Abs in array format using copies of peptide libraries and standard antibody concentrations of 0.5–1 μg/mL (Figure 1a). The library comprised the amyloid precursor protein (APP770) residues 649–722, corresponding to the canonical Aβ1–42 amino acid sequence with additional 23 amino terminal and 9 carboxy terminal residues. […] For optimal signal to noise ratios and ideal selectivity profiles on the microarrays, the Aβ-Ab concentrations were adjusted for 3D6, 82E1, 11H3, 80C2 and 7H3D6 (Figure 1 – figure- supplement 1) and (Appendix 1–7). […] Specifically, Donanemabbs, 2–48 and Aβ-pE3 were raised against AβpE3-x (Table 1) and were expected to show preference for Aβ peptides starting with a pE(3).
Figure 1. Microarray workflow and Aβ-Ab epitope pre-screening. (a) Schematic of the microarray workflow. The library comprised the amyloid precursor protein (APP) residues 649–722 (APP770 numbering), corresponding to Aβ residues −23 to 51, as a library of 15-mer peptides overlapping by 14AAs, copied in dozens, and probed for Aβ-Abs binding followed by analysis in MARTin. (b) The epitope screening binding data are summarized as a heatmap. Blue and red shades indicate the relative binding strength of the related arrayed peptides to the left and cognate Aβ-Ab on top. The blue – red scale is visualizing the normalized binding intensity for each antibody individually. The applied antibody concentrations ranged between 0.5–1 μg/mL.
The μSPOT assay was performed as previously described. […] Peptide arrays were synthesized using MultiPep RSi robot (CEM GmbH, Kamp-Lintford, Germany) on cellulose discs containing Fmoc-β-Ala linkers. Natural amino acid building blocks were purchased from IRIS (IRIS Biotech GmbH, Marktredwitz, Germany). Special building blocks employed in this study such as isomers, stereoisomers, phosphorylation and pyroglutamination […] modifications are listed here: Fmoc-L-Ser(PO(OBzl)OH)-OH (Iris – FAA1423), L-Pyroglutamic acid pentachlorophenyl ester (Novabiochem - 8.54203), Fmoc-L-Asp-OtBu (Iris – FAA1356), Fmoc-D-Asp-OtBu (Carbosolutions – CC05095) and Fmoc-D-Asp(tBu)-OH (Iris – FAA1309). Synthesis was carried out by deprotecting the Fmoc-group using 20% piperidine in dimethylformamide (DMF). Peptide chains were elongated using a coupling solution consisting of amino acids (0.5M) with oxyma (1M) and DIC (1M) in DMF (1:1:1). Coupling steps were carried out 3 times (30min), followed by capping (4% acetic anhydride in DMF). Discs were transferred into 96 deep-well plates for the work-up.

Assay [2] concerns synthetic Aβ peptides. The assay can be described thus: Peptide Bicine-Tris SDS-PAGE/Western blot. The class given is binding. To be noted: PVDF, 50 ng per peptide, 0.5 μg/mL antibody. (In western blotting, separated proteins are transferred to a membrane and probed.)

Take “Donanemabbs: humanized monoclonal, biosimilar of Donanemab, Proteogenix (#PX-TA1549)”: the “Array: epitope identified in this study on microarrays” value in assay [1] (Aβ residue numbers, 15-mer peptides overlapping by 14AAs on cellulose conjugates, chemiluminescence) is 3–10. The “binding in epitope pre-screening” value in assay [1] (unmodified Aβ-related 15-mers, generic pre-screening conditions) is “detected Aβ(3-x) starting with non-cyclized Glu (3), Aβ(−3-x) as well as several other N-terminally elongated Aβ-related peptides and Aβ1-x; also recorded: clear signals with AβpE3-x and several other Aβ related peptides starting N-terminally of Glu(3), including Aβ1-x”. Also, the “Aβ variants detected on Bicine-Tris SDS-PAGE/Western blot” value in assay [2] was “detected AβpE3–40 and Aβ3–40”.
